Usually EC50 stands for the concentration that produces a half-maximal response.

Activity calls are given as the source filed them.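 The calls were made as follows: active = EC50 no more than a set limit of log units above the highest dose; inactive = the rest.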

The target in the experiment is S. pyogenes SKKanGAS, kanamycin survival, BacTiterGlo, 6 h. Kind of experiment: SKKanGAS survival reduction under kanamycin, dose response, streptokinase promoter inhibitor project, SKKanGAS strain, luminescence, dose confirmation (AID 1902).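 Also: lower survival reflects blocked streptokinase promoter driving kanamycin resistance gene.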

For `Cc1n[nH]c(C)c1CCCOc1ccccc1`, the EC50 was 5.14 µM.

Regarding `C/C(=N\NC(=O)c1cccc(Br)c1)c1ccccn1`, the EC50 was 0.74 µM. Turning to `CC(C)=CCc1c2c(c3occ(-c4ccc(O)cc4)c(=O)c3c1O)C=CC(C)(C)O2`, the EC50 is 0.876 µM.

With `Cc1cccc(NC(=O)c2ccc(S(=O)(=O)N(C)CC3CCCO3)cc2)c1C` (centres undefined), the EC50 is > 15 µM (inactive). The result for `CCCCNc1c(-c2ccc(-c3ccc(C(C)=O)cc3)c(OC)c2)nc2cnccn12` reads 5.58 µM; that for `Fc1ccc(CSc2nc3ccccc3[nH]2)c2ccccc12`, 6.11 µM. The result for `CC(C)(C)c1ccc(C(=O)NNC(=S)NC(=O)c2cccnc2)cc1` reads 0.249 µM; that for `O=C(c1ccc2c3n(nc2c1)-c1ccccc1CO3)N1CCCCC1`, 9.38 µM; that for `COc1ccc(-c2cc(C3CCN(Cc4cccc(C(F)(F)F)c4)CC3)[nH]n2)cc1`, 9.26 µM.

Take `Oc1nc(Nc2ccc(F)cc2)sc1/C=C1\C=Nc2ccccc21`: the concentration for a half-maximal effect (EC50) is 8.88 µM. The result for `Oc1c(N=Nc2ccccn2)ccc2ccccc12` reads 2.58 µM; that for `CC(NS(=O)(=O)/C=C/c1ccccc1)C(=O)O` (centres undefined), > 15 µM (inactive). The result for `COc1cc(C(=O)NC(=S)Nc2ccc(NC(=O)c3ccco3)cc2)cc(OC)c1OC` reads 8.97 µM; that for `CCC(O)(CC)C(=O)N/N=C/c1cc(Br)cc(Br)c1O`, 2.64 µM. The result for `CCc1ccc(/C=C/c2c([N+](=O)[O-])c(=O)n(C)c(=O)n2C)cc1` reads 11 µM; that for `COc1ccccc1-n1c(SCC(=O)Nc2ccc(C)cc2)nc(O)cc1=O`, 13.6 µM; that for `CC1=Nc2ccccc2/C1=C/c1sc(=N)n(-c2nccs2)c1O`, 0.452 µM. On to `O=C(CSc1nnc(NC(=O)c2cccc(Cl)c2)s1)NCC1CCCO1` (centres undefined), for which the EC50 was > 15 µM (inactive). The result for `CC1CCN(Cc2c(C(=O)N/N=C/c3cc(Cl)ccc3O)nnn2-c2nonc2N)CC1` reads 2.67 µM; that for `COc1ccc(C(=O)/C=C/c2ccc(-c3ccccc3)cc2)cc1CSCC(=O)O`, 5.51 µM; that for `C/C(N)=C(/C#N)C(=O)CSc1nc2scc(-c3ccc(F)cc3)c2c(=O)n1C`, 2.1 µM. The result for `O=C(/C=C/c1cccc(C(F)(F)F)c1)Nc1cccc(C(F)(F)F)c1` reads 3.3 µM; that for `O=C(Nc1nc(-c2ccccn2)cs1)c1ncc(Cl)c(Cl)c1Cl`, 0.771 µM; that for `CCCC(=O)Nc1ccc2c(c1)nc(CCNC(=O)c1ccccc1)n2C`, > 15 µM (inactive). The result for `CCCc1cc2c(-c3ccccc3)cc(=O)oc2cc1OCc1ccc(C(=O)O)o1` reads 8.9 µM. Regarding `Cc1onc(-c2ccccc2)c1C(=O)NNC(=S)NC(=O)/C=C/c1cccs1`, the EC50 is 0.839 µM.

Take `Cc1c(Cl)cccc1NC(=S)NCCC(c1ccccc1)c1ccccc1`: the EC50 is 9.25 µM. As to `Brc1ccc(C2C3=C(Nc4ncnn42)c2ccccc2OC3c2ccncc2)cc1` (centres undefined), the EC50 was 10.1 µM. The result for `S=C(NCc1ccco1)N1CCN(c2nc(-c3ccc(Cl)cc3)cs2)CC1` reads 9.92 µM; that for `COc1ccc(NC(=O)c2cc(-c3cc(C)cc(C)c3O)n[nH]2)cc1Cl`, 2.25 µM.

In the case of `Cc1ccccc1OCCCc1c(C)n[nH]c1C`, the 50% effective concentration (EC50) was 1.09 µM. The result for `c1ccc(CCNc2nc(-c3ccccn3)nc3ccccc23)cc1` reads 0.884 µM; that for `Cc1cc(C)n(-c2nc(NCCCO)c3c4c(sc3n2)CCCC4)n1`, 2.2 µM; that for `CC1(C)S[C@@H]2[C@H](NC(=O)COc3ccccc3)C(=O)N2C1C(=O)OCc1cc2ccccc2n1S(=O)(=O)c1ccccc1` (some centres undefined), 3.33 µM. The result for `Cc1cc(C)c2ccc(N)nc2c1O` reads 3.33 µM; that for `Cc1cccc(N2CCN(C(=O)c3cc4n(n3)C(C(F)(F)F)CC(c3ccco3)N4)CC2)c1C` (centres undefined), 4.2 µM.

On to `COc1ccc(CN(C)S(=O)(=O)c2nnc(NC(=O)c3ccccc3Br)s2)cc1`, for which the EC50 is 3.51 µM. Turning to `CC(/C=C/C=C/c1ccccc1)=N/NC(=O)c1ccc2c(c1)OCCO2`, the EC50 was > 15 µM (inactive).

`O=C1CCSc2ccc(Cl)cc2N1Cc1ccc(Cl)cc1`: the EC50 was 3.93 µM. The result for `Cc1cc(SCC(=O)N/N=C/c2ccc(O)c(O)c2O)c(C)cc1Br` reads 3.11 µM. Regarding `COCCSc1ccccc1C(=O)N1CCCC(C)C1` (centres undefined), the EC50 was > 15 µM (inactive). The result for `COc1cccc(C(=O)N2C(C(=O)O)CSC2c2ccccc2Cl)c1` (centres undefined) reads > 15 µM (inactive); that for `Cc1cccc(C)c1-n1cccc1/C=C1\SC(=S)N(c2cccc(C(=O)O)c2)C1=O`, 2.26 µM. The result for `O=C(/C=C/c1cccs1)NC(=S)NNC(=O)Cc1cccs1` reads 2.56 µM.

On to `Cc1cc(C)nc(-n2nc(C)c(Sc3ccc(F)cc3)c2N)n1`, for which the EC50 was > 15 µM (inactive).

`CCOc1cccc(/C=N/NC(=S)Nc2ccccc2[N+](=O)[O-])c1O`: the EC50 was 0.095 µM. The result for `Cc1cc(/C=C2\SC(=S)N(C)C2=O)c(C)n1-c1ccccc1O` reads 6.72 µM.

On to `CCCCCc1ccc(OCCCC[n+]2ccccc2)c(CCCCC)c1`, for which the concentration giving a half-maximal response (EC50) was 7.07 µM. For `Cc1cc(C)c2[nH]c(O)c(N=Nc3ccc(C(=O)O)cc3)c2c1`, the half-maximal effective concentration (EC50) was 1.8 µM.

For the molecule `Cc1ccc(O)c(C(=O)CC(=O)c2ccc(C(C)(C)C)cc2)c1`, the concentration for a half-maximal effect (EC50) is 2.6 µM. The result for `CCOc1ccc(NC(=O)c2c(NC(=O)CNCCN3CCOCC3)sc3c2CCC3)cc1` reads 1.1 µM. The result for `CCOC(=O)c1ccc(NC(=O)CC2S/C(=N/N=C/c3c[nH]c4ccccc34)NC2=O)cc1` (centres undefined) reads 7.73 µM; that for `O=C1C(=O)c2ccccc2-c2ccccc21`, 1.26 µM. The result for `CC1CCC(C(=O)c2c(O)c3ccccc3oc2=O)CC1` (centres undefined) reads 5.13 µM; that for `O=C(Nc1ccc(N2CCCC2)c(S(=O)(=O)Nc2cccc(C(F)(F)F)c2)c1)c1cccs1`, 3.95 µM. In the case of `COc1cnc(-c2ccccn2)nc1Oc1ccc(C(C)(C)C)cc1`, the concentration for a half-maximal effect (EC50) was 7.68 µM. The result for `O=C1c2ccccc2CCC12N=NCC2c1ccc(Br)cc1` (centres undefined) reads 14.8 µM; that for `COc1cccc(C(=O)Oc2ccc(/C=N/Nc3ccc(C(=O)O)cc3)cc2OC)c1`, 6.23 µM; that for `CCCCCCCOC(=O)C[N+](C)(C)CCOC1CC2CCC1(C)C2(C)C` (centres undefined), 4.52 µM.

For the molecule `COc1cccc(-c2nnc(Nc3nc4c(F)cccc4s3)o2)c1`, the concentration giving a half-maximal response (EC50) is 0.502 µM. The result for `CCCc1ccc(OCC(=O)NNC(=S)NC(=O)c2ccco2)cc1` reads less than 0.06 µM; that for `Cc1c(CCOC(=O)C2C3CC4CC(C3)CC2C4)sc[n+]1CC(=O)c1ccc(Br)cc1` (centres undefined), 7.28 µM. As for `CCSc1cc(N2CCCC2)nc(-c2ccccc2)n1`, the EC50 was > 15 µM (inactive). The result for `Cc1ccc(C(=O)NC2CCCC2)s1` reads > 15 µM (inactive); that for `CCOC(=O)c1c2c(n(C)c1COC)C(=O)C(=O)c1ccc(Br)cc1-2`, 3.66 µM; that for `O=C(NCc1ccc2c(c1)OCO2)Nc1ccc(F)cc1`, > 15 µM (inactive). The result for `Cc1onc(-c2ccccc2)c1C(=O)NNC(=S)NC(=O)c1ccc(Br)cc1` reads 0.174 µM; that for `COc1ccc(C(=O)c2ccc(N3CCN(C4CC(=O)NC4=O)CC3)cc2)cc1F` (centres undefined), 2.76 µM.

Take `Cc1cc(C)c[n+](C2=C([O-])c3ccccc3C(=O)/C2=N\S(=O)(=O)c2cccs2)c1`: the EC50 is 1.85 µM.

Values taken from PubChem BioAssay AID1902 (Broad Institute, 2009).
